Measurements as given in patent US9783532B2, “Molecules having certain pesticidal utilities, and intermediates, compositions, and processes related thereto” (Dow AgroSciences LLC, priority 2013, dated 2017).

Key:
[1] = test system: Cabbage Looper (Trichoplusia ni) ("CL"); experiment: Bioassay on cabbage looper (CL), 128-well diet tray assay; assay type: in vivo; conditions: 168 h, 50 μg/cm^2 on artificial diet, second instar CL larvae, 25° C., five to seven days, average of eight wells, read-out: CL % Control (or Mortality) rating
Procedure, shortened: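 Second-instar larvae (one to five per well) placed on artificial diet surface-treated with 50 μg/cm^2 compound in 90:10 acetone-water, dried before infestation. Held 25 °C, 14:10 light-dark for five to seven days; percent mortality scored per well and averaged over eight wells.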

[2] = test system: Beet Armyworm (Spodoptera exigua) ("BAW"); experiment: Bioassay on beet armyworm (BAW), 128-well diet tray assay; assay type: in vivo; conditions: 168 h, 50 μg/cm^2 on artificial diet, second instar BAW larvae, 25° C., five to seven days, average of eight wells, read-out: BAW % Control (or Mortality) rating
Procedure, shortened: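 Second-instar larvae (one to five per well) were placed on artificial diet surface-treated with 50 μg/cm^2 compound applied in 90:10 acetone-water and dried, eight wells per compound. Held at 25° C., 14:10 light-dark for five to seven days; percent mortality was scored per well and averaged over the eight wells.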

SMILES: Cc1ccc(N2C(=O)CS/C2=N\C(=O)NCc2ccc(-c3ncn(-c4ccc(OC(F)(F)F)cc4)n3)cc2)c(C(C)C)c1 [P5, (Z)-1-(3-(2-isopropyl-4-methylphenyl)-4-oxothiazolidin-2-ylidene)-3-(4-(1-(4-(trifluoromethoxy)phenyl)-1H-1,2,4-triazol-3-yl)benzyl)urea]
- mortality at 50 µg/cm2 [1]: 50 to 100%
- mortality at 50 µg/cm2 [2]: 50 to 100%

SMILES: COc1ccc(N2C(=O)CS/C2=N\C(=O)NCc2ccc(-c3ncn(-c4ccc(OC(F)(F)F)cc4)n3)cc2)c(C)c1 [P6, (Z)-1-(3-(4-methoxy-2-methylphenyl)-4-oxothiazolidin-2-ylidene)-3-(4-(1-(4-(trifluoromethoxy)phenyl)-1H-1,2,4-triazol-3-yl)benzyl)urea]
- mortality at 50 µg/cm2 [1]: 50 to 100%
- mortality at 50 µg/cm2 [2]: 50 to 100%

SMILES: CCc1ccc(C)cc1N1C(=O)CS/C1=N\C(=O)NCc1ccc(-c2ncn(-c3ccc(OC(F)(F)F)cc3)n2)cc1 [P7, (Z)-1-(3-(2-ethyl-5-methylphenyl)-4-oxothiazolidin-2-ylidene)-3-(4-(1-(4-(trifluoromethoxy)phenyl)-1H-1,2,4-triazol-3-yl)benzyl)urea]
- mortality at 50 µg/cm2 [1]: 50 to 100%
- mortality at 50 µg/cm2 [2]: 50 to 100%

SMILES: CCCc1ccc(C)cc1N1C(=O)CS/C1=N\C(=O)NCc1ccc(-c2ncn(-c3ccc(OC(F)(F)F)cc3)n2)cc1 [P8, P852, (Z)-1-(3-(5-methyl-2-propylphenyl)-4-oxothiazolidin-2-ylidene)-3-(4-(1-(4-(trifluoromethoxy)phenyl)-1H-1,2,4-triazol-3-yl)benzyl)urea]
- mortality at 50 µg/cm2 [1]: 50 to 100%
- mortality at 50 µg/cm2 [2]: 50 to 100%

SMILES: CC(C)c1ccccc1N1C(=O)CS/C1=N\C(=O)NCc1ccc(-c2ncn(-c3ccc(C(F)(F)F)cc3)n2)cc1 [P14, (Z)-1-(3-(2-isopropylphenyl)-4-oxothiazolidin-2-ylidene)-3-(4-(1-(4-(trifluoromethyl)phenyl)-1H-1,2,4-triazol-3-yl)benzyl)urea]
- mortality at 50 µg/cm2 [1]: 50 to 100%
- mortality at 50 µg/cm2 [2]: 50 to 100%

SMILES: Cc1ccc(N2C(=O)CS/C2=N\C(=O)NCc2ccc(-c3ncn(-c4ccc(C(F)(F)F)cc4)n3)cc2)c(C(C)C)c1 [P15, (Z)-1-(3-(2-isopropyl-4-methylphenyl)-4-oxothiazolidin-2-ylidene)-3-(4-(1-(4-(trifluoromethyl)phenyl)-1H-1,2,4-triazol-3-yl)benzyl)urea]
- mortality at 50 µg/cm2 [1]: 50 to 100%
- mortality at 50 µg/cm2 [2]: 50 to 100%

SMILES: Cc1ccc(C(C)C)c(N2/C(=N/C(=O)NCCc3ccc(-c4ncn(-c5ccc(OC(F)(F)F)cc5)n4)cc3)SCC2C)c1 (stereo not drawn) [P58, (Z)-1-(3-(2-isopropyl-5-methylphenyl)-4-methylthiazolidin-2-ylidene)-3-(4-(1-(4-(trifluoromethoxy)phenyl)-1H-1,2,4-triazol-3-yl)phenethyl)urea]
- mortality at 50 µg/cm2 [1]: 50 to 100%
- mortality at 50 µg/cm2 [2]: 50 to 100%

SMILES: Cc1ccc(C(C)C)c(N2CCCS/C2=N\C(=O)NCCc2ccc(-c3ncn(-c4ccc(OC(F)(F)F)cc4)n3)cc2)c1 [P59, (Z)-1-(3-(2-isopropyl-5-methylphenyl)-1,3-thiazinan-2-ylidene)-3-(4-(1-(4-(trifluoromethoxy)phenyl)-1H-1,2,4-triazol-3-yl)phenethyl)urea]
- mortality at 50 µg/cm2 [1]: 50 to 100%
- mortality at 50 µg/cm2 [2]: 50 to 100%

SMILES: Cc1ccc(C(C)C)c(N2CC(C)CS/C2=N\C(=O)NCCc2ccc(-c3ncn(-c4ccc(OC(F)(F)F)cc4)n3)cc2)c1 (stereo not drawn) [P64]
- mortality at 50 µg/cm2 [1]: 50 to 100%
- mortality at 50 µg/cm2 [2]: 50 to 100%

SMILES: Cc1ccccc1N1C(=O)CS/C1=N\C(=O)NCCc1cccc(-c2ncn(-c3ccc(OC(F)(F)F)cc3)n2)c1 [P74, (Z)-1-(4-oxo-3-(o-tolyl)thiazolidin-2-ylidene)-3-(3-(1-(4-(trifluoromethoxy)phenyl)-1H-1,2,4-triazol-3-yl)phenethyl)urea]
- mortality at 50 µg/cm2 [1]: 50 to 100%
- mortality at 50 µg/cm2 [2]: 50 to 100%

SMILES: CCc1ccccc1N1C(=O)CS/C1=N\C(=O)NCCc1cccc(-c2ncn(-c3ccc(OC(F)(F)F)cc3)n2)c1 [P75, (Z)-1-(3-(2-ethylphenyl)-4-oxothiazolidin-2-ylidene)-3-(3-(1-(4-(trifluoromethoxy)phenyl)-1H-1,2,4-triazol-3-yl)phenethyl)urea]
- mortality at 50 µg/cm2 [1]: 50 to 100%
- mortality at 50 µg/cm2 [2]: 50 to 100%

SMILES: CC(C)c1ccccc1N1C(=O)CS/C1=N\C(=O)NCCc1cccc(-c2ncn(-c3ccc(OC(F)(F)F)cc3)n2)c1 [P76, (Z)-1-(3-(2-isopropylphenyl)-4-oxothiazolidin-2-ylidene)-3-(3-(1-(4-(trifluoromethoxy)phenyl)-1H-1,2,4-triazol-3-yl)phenethyl)urea]
- mortality at 50 µg/cm2 [1]: 50 to 100%
- mortality at 50 µg/cm2 [2]: 50 to 100%

SMILES: CCCc1ccc(C)cc1N1C(=O)CS/C1=N\C(=O)NCCc1cccc(-c2ncn(-c3ccc(OC(F)(F)F)cc3)n2)c1 [P80, (Z)-1-(3-(5-methyl-2-propylphenyl)-4-oxothiazolidin-2-ylidene)-3-(3-(1-(4-(trifluoromethoxy)phenyl)-1H-1,2,4-triazol-3-yl)phenethyl)urea]
- mortality at 50 µg/cm2 [1]: 50 to 100%
- mortality at 50 µg/cm2 [2]: 50 to 100%

SMILES: CCc1cccc(C)c1N1C(=O)CS/C1=N\C(=O)NCCc1cccc(-c2ncn(-c3ccc(OC(F)(F)F)cc3)n2)c1 [P83, (Z)-1-(3-(2-ethyl-6-methylphenyl)-4-oxothiazolidin-2-ylidene)-3-(3-(1-(4-(trifluoromethoxy)phenyl)-1H-1,2,4-triazol-3-yl)phenethyl)urea]
- mortality at 50 µg/cm2 [1]: 50 to 100%
- mortality at 50 µg/cm2 [2]: 50 to 100%

SMILES: Cc1ccc(N2C(=O)CS/C2=N\C(=O)NCCc2cccc(-c3ncn(-c4ccc(OC(F)(F)F)cc4)n3)c2)c(C(C)C)c1 [P84, (Z)-1-(3-(2-isopropyl-4-methylphenyl)-4-oxothiazolidin-2-ylidene)-3-(3-(1-(4-(trifluoromethoxy)phenyl)-1H-1,2,4-triazol-3-yl)phenethyl)urea]
- mortality at 50 µg/cm2 [1]: 50 to 100%
- mortality at 50 µg/cm2 [2]: 50 to 100%

SMILES: CC(C)c1cc(F)ccc1N1C(=O)CS/C1=N\C(=O)NCCc1cccc(-c2ncn(-c3ccc(OC(F)(F)F)cc3)n2)c1 [P85, (Z)-1-(3-(4-fluoro-2-isopropylphenyl)-4-oxothiazolidin-2-ylidene)-3-(3-(1-(4-(trifluoromethoxy)phenyl)-1H-1,2,4-triazol-3-yl)phenethyl)urea]
- mortality at 50 µg/cm2 [1]: 50 to 100%
- mortality at 50 µg/cm2 [2]: 50 to 100%

SMILES: COc1ccc(N2C(=O)CS/C2=N\C(=O)NCCc2cccc(-c3ncn(-c4ccc(OC(F)(F)F)cc4)n3)c2)c(C)c1 [P87, (Z)-1-(3-(4-methoxy-2-methylphenyl)-4-oxothiazolidin-2-ylidene)-3-(3-(1-(4-(trifluoromethoxy)phenyl)-1H-1,2,4-triazol-3-yl)phenethyl)urea]
- mortality at 50 µg/cm2 [1]: 50 to 100%
- mortality at 50 µg/cm2 [2]: 50 to 100%

SMILES: Cc1ccccc1N1C(=O)CS/C1=N\C(=O)NCCCc1ccc(-c2ncn(-c3ccc(OC(F)(F)F)cc3)n2)cc1 [P92, (Z)-1-(4-oxo-3-(o-tolyl)thiazolidin-2-ylidene)-3-(3-(4-(1-(4-(trifluoromethoxy)phenyl)-1H-1,2,4-triazol-3-yl)phenyl)propyl)urea]
- mortality at 50 µg/cm2 [1]: 50 to 100%
- mortality at 50 µg/cm2 [2]: 50 to 100%

SMILES: CCc1ccccc1N1C(=O)CS/C1=N\C(=O)NCCCc1ccc(-c2ncn(-c3ccc(OC(F)(F)F)cc3)n2)cc1 [P93, P510, (Z)-1-(3-(2-ethylphenyl)-4-oxothiazolidin-2-ylidene)-3-(3-(4-(1-(4-(trifluoromethoxy)phenyl)-1H-1,2,4-triazol-3-yl)phenyl)propyl)urea]
- mortality at 50 µg/cm2 [1]: 50 to 100%
- mortality at 50 µg/cm2 [2]: 50 to 100%

SMILES: CC(C)c1ccccc1N1C(=O)CS/C1=N\C(=O)NCCCc1ccc(-c2ncn(-c3ccc(OC(F)(F)F)cc3)n2)cc1 [P94, P197, (Z)-1-(3-(2-isopropylphenyl)-4-oxothiazolidin-2-ylidene)-3-(3-(4-(1-(4-(trifluoromethoxy)phenyl)-1H-1,2,4-triazol-3-yl)phenyl)propyl)urea]
- mortality at 50 µg/cm2 [1]: 50 to 100%
- mortality at 50 µg/cm2 [2]: 50 to 100%

SMILES: CCCc1ccc(C)cc1N1C(=O)CS/C1=N\C(=O)NCCCc1ccc(-c2ncn(-c3ccc(OC(F)(F)F)cc3)n2)cc1 [P99, P830, (Z)-1-(3-(5-methyl-2-propylphenyl)-4-oxothiazolidin-2-ylidene)-3-(3-(4-(1-(4-(trifluoromethoxy)phenyl)-1H-1,2,4-triazol-3-yl)phenyl)propyl)urea]
- mortality at 50 µg/cm2 [1]: 50 to 100%
- mortality at 50 µg/cm2 [2]: 50 to 100%

SMILES: Cc1ccc(N2C(=O)CS/C2=N\C(=O)NCCCc2ccc(-c3ncn(-c4ccc(OC(F)(F)F)cc4)n3)cc2)c(C(C)C)c1 [P102, (Z)-1-(3-(2-isopropyl-4-methylphenyl)-4-oxothiazolidin-2-ylidene)-3-(3-(4-(1-(4-(trifluoromethoxy)phenyl)-1H-1,2,4-triazol-3-yl)phenyl)propyl)urea]
- mortality at 50 µg/cm2 [1]: 50 to 100%
- mortality at 50 µg/cm2 [2]: 50 to 100%

SMILES: CC(C)c1cc(F)ccc1N1C(=O)CS/C1=N\C(=O)NCCCc1ccc(-c2ncn(-c3ccc(OC(F)(F)F)cc3)n2)cc1 [P103, P1150, (Z)-1-(3-(4-fluoro-2-isopropylphenyl)-4-oxothiazolidin-2-ylidene)-3-(3-(4-(1-(4-(trifluoromethoxy)phenyl)-1H-1,2,4-triazol-3-yl)phenyl)propyl)urea]
- mortality at 50 µg/cm2 [1]: 50 to 100%
- mortality at 50 µg/cm2 [2]: 50 to 100%

SMILES: COc1ccc(N2C(=O)CS/C2=N\C(=O)NCCCc2ccc(-c3ncn(-c4ccc(OC(F)(F)F)cc4)n3)cc2)c(C)c1 [P105, (Z)-1-(3-(4-methoxy-2-methylphenyl)-4-oxothiazolidin-2-ylidene)-3-(3-(4-(1-(4-(trifluoromethoxy)phenyl)-1H-1,2,4-triazol-3-yl)phenyl)propyl)urea]
- mortality at 50 µg/cm2 [1]: 50 to 100%
- mortality at 50 µg/cm2 [2]: 50 to 100%
